ChEMBL document CHEMBL2417430, “A synthetic approach to novel carvotacetone and antheminone analogues with anti-tumour activity” (Bioorg Med Chem Lett, 2013)

Each molecule was assayed on MCF-10A (assay: Cytotoxicity against human MCF10A cells after 4 days by MTT assay). Settings: 96 h.
Assay type: cell-based

SMILES | IC50 [µM]
C/C=C/C(=O)OCC1=C[C@H](O)[C@@H](c2ccccc2)CC1=O | 1.8

These molecules were tested on A549 (assay: Cytotoxicity against human A549 cells after 4 days by MTT assay). Settings: A549, 96 h.
Assay type: functional, cell-based

SMILES | IC50 [µM]
C/C=C/C(=O)OCC1=C[C@H](O)[C@@H](C(C)C)CC1=O | 14
C/C=C/C(=O)OCC1=C[C@@H](O)CCC1=O | 16.7
C/C=C/C(=O)OCC1=C[C@H](O)[C@H](c2ccccc2)CC1=O | 8
CC(C)[C@H]1CC(=O)C(CO)=C[C@@H]1O | 159
C/C=C/C(=O)OCC1=C[C@H](O)[C@@H](c2ccccc2)CC1=O | 1.3
C/C=C/C(=O)OCC1=C[C@H](O)[C@@H]2C[C@@H]2C1=O | 18.1
